pIC50: −log10 of the molar value.

The text below walks through data of patent US5545647A, “3-phenylpyrrolidine derivatives” (Mitsubishi Chemical Corporation, priority 1994, dated 1996).

The test system of the first experiment is Phosphodiesterase (PDE) IV. Briefly: Action to Phosphodiesterase (PDE) IV Enzyme Activities (3H-cAMP hydrolysis, enzyme from U-937 cells). It is filed as biochemical. As to conditions: human histiocytic lymphoma (U-937) cytoplasm fraction enzyme; 0.4 μM 3H-cAMP; pH 8.0; 15 minutes at 30° C.; read-out: PDE IV inhibitory activity IC50. As to the method:
Action to Phosphodiesterase (PDE) IV Enzyme Activities
Enzyme was partialy purified from human histiocytic lymphoma(U-937) cytoplasm fraction by means of the Q-sepharose column according to the method of Nicholson and collaborators [Br. J. Pharmacol., 97, 889 (1989)], and was reacted in a solution of 0.1 mg/ml BSA (bovine serum albumin), 1 mM EDTA (ethylenediaminetetra acetic acid), 5 mM MgCl2 and 50 mM Tris-buffer (pH 8.0) for 15 minutes at 30° C. using 0.4 μM ^3 H-cAMP as substrate according to the method of Hidaka and collaborators [Biochem. Med., 10, 301 (1974)]. ^3 H-5'-AMP generated was separated by means of the cation exchange column, and the enzyme activity was determined by measuring a radioactivity amount.
A test compound was added. After incubation for 15 minutes at 30° C., the substrate was added. Inhibition ratios were derived for respective concentrations assuming that the reaction without the test compound was 100%. By using the probit analysis, the concentration (IC50) showing the inhibition rate of 50% was derived.
For orientation: pIC50 means −log10 of the IC50, conventionally taken in molar units. With `COc1ccc(C2CCN(C(=O)OCc3cccnc3)C2)cc1OC1CCCC1` (racemic) [Compound No. 13, (±)-3-(3-cyclopentyloxy-4-methoxyphenyl)-l-(3pyridylmethoxycarbonyl) pyrrolidine], the pIC50 is 8.48.

Regarding `COc1ccc(C2CCN(C(=O)OCc3cccnc3)C2)cc1OC1CCCC1` (single isomer, unassigned; (-)) [Compound No. 48, (-)-3-(3-cyclopentyloxy-4-methoxyphenyl)-1-(3-pyridylmethoxycarbonyl) pyrrolidine], the pIC50 was 8.96.

Consider `COc1ccc(C2CCN(C(=O)OC(C)(C)C)C2)cc1OC1CCCC1` (centres unmarked) [Compound No. 1], for which the negative-log IC50 (pIC50) is 8.00. On the same count and under the same terms, in the case of `CCOC(=O)N1CCC(c2ccc(OC)c(OC3CCCC3)c2)C1` (centres unmarked) [Compound No. 4, 3-(3-cyclopentyloxy-4-methoxyphenyl)-1-(ethoxycarbonyl) pyrrolidine] it was 7.96.

In the case of `COc1ccc(C2CCN(C(=O)OCc3ccccc3)C2)cc1OC1CCCC1` (centres unmarked) [compound 3], the pIC50 was 8.22. Still for that read-out and setting: in the case of `CCCCOC(=O)N1CCC(c2ccc(OC)c(OC3CCCC3)c2)C1` (centres unmarked) [compound 6] it was 8.22.

In the case of `COc1ccc(C2CCN(C(=O)c3ccccc3)C2)cc1OC1CCCC1` (centres unmarked) [compound 7], the pIC50 is 7.70. On the same count and under the same terms, in the case of `COc1ccc(C2CCN(C(=O)OC(C)(C)C)C2)cc1OC1CCOC1` (centres unmarked) [compound 8] it was 7.72. On the same count and under the same terms, in the case of `COc1ccc(C2CCN(C(=O)OCc3ccc[n+]([O-])c3)C2)cc1OC1CCCC1` (centres unmarked) [compound 17] it was 7.64. For `COc1ccc(C2CCN(C(=O)OCc3ccncc3)C2)cc1OC1CCCC1` (centres unmarked) [compound 19], the negative-log IC50 (pIC50) was 8.42. Regarding `COc1ccc(C2CCN(C(=O)OCc3ccccn3)C2)cc1OC1CCCC1` (centres unmarked) [compound 24], the pIC50 was 8.64. Still for that read-out and setting: the result for `COc1ccc(C2CCN(C(=O)OCc3cccc[n+]3[O-])C2)cc1OC1CCCC1` (centres unmarked) [compound 26] reads 8.06. Take `COc1cc2c(cc1OC)CN(C(=O)N1CCC(c3ccc(OC)c(OC4CCCC4)c3)C1)CC2` (centres unmarked) [compound 32]: the pIC50 is 7.60. Still for that read-out and setting: the result for `COc1ccc(C2CCN(C(=O)OCCc3ccccn3)C2)cc1OC1CCCC1` (centres unmarked) [compound 36] reads 7.96; that for `COc1ccc(C2CCN(C(=O)OCc3ccnc(Cl)c3)C2)cc1OC1CCCC1` (centres unmarked) [compound 37], 7.72; that for `COc1ccc(C2CCN(C(=O)OCc3ccc(Cl)nc3)C2)cc1OC1CCCC1` (centres unmarked) [compound 38], 7.64. Still for that read-out and setting: in the case of `COc1ccc(C2CCN(C(=S)OCc3cccnc3)C2)cc1OC1CCCC1` (centres unmarked) [compound 40] it was 8.00; in that of `COc1ccc(C2CCN(C(=O)OCc3cccnn3)C2)cc1OC1CCCC1` (centres unmarked) [compound 42], 8.10. The same measure, in the same setting: the result for `COc1ccc(C2CNC(=O)C2)cc1OC1CCCC1` (centres unmarked) [roliplam, reference compound] reads 6.52.

A further experiment deals with PDE IV.
Assay: not given
As to conditions: Adv. Second Messenger Phosphoprotein Res., 22, 1 (1988); cited from earlier work.
Turning to `COc1ccc(C2CNC(=O)C2)cc1OC1CCCC1` (centres unmarked) [roliplam, reference compound], the “specific inhibition to PDE IV” value is on record as “specific inhibition to PDE IV”.
